Data taken from ChEMBL document CHEMBL3991601, “The target landscape of clinical kinase drugs” (Science, 2017).
Activity calls are given as the source filed them. Cut-off read from the data, not from the text of the source, for most assays here: actives have a measured Kd and inactives only a lower limit.

Columns and labels:
[1] = target: Tyrosine-protein kinase Fer (Homo sapiens, UniProt P16591)
[2] = target: Insulin-like growth factor 1 receptor (Homo sapiens, UniProt P08069)
[3] = target: Casein kinase I isoform alpha (Homo sapiens, UniProt P48729)
[4] = target: Serine/threonine-protein kinase 26 (Homo sapiens, UniProt Q9P289)
[5] = target: Tyrosine-protein kinase FRK (Homo sapiens, UniProt P42685)
Pyridoxal kinase = target: T1, Pyridoxal kinase (Homo sapiens, UniProt O00764)
T1 sequence (O00764 whole entry): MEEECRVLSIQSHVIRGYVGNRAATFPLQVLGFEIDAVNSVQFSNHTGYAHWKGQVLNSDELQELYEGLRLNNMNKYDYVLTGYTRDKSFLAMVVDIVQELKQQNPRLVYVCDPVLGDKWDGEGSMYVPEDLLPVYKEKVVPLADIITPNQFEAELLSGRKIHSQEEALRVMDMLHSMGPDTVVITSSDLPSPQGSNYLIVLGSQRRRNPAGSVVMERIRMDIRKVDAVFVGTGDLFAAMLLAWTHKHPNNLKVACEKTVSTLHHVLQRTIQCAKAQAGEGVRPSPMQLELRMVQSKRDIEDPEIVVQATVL

[6] = target: Tyrosine-protein kinase BTK (Homo sapiens, UniProt Q06187)
[7] = target: Serine/threonine-protein kinase PAK 4 (Homo sapiens, UniProt O96013)
[8] = target: T2, MAP kinase-activated protein kinase 5 (Homo sapiens, UniProt Q8IW41)
T2 sequence (Q8IW41 whole entry): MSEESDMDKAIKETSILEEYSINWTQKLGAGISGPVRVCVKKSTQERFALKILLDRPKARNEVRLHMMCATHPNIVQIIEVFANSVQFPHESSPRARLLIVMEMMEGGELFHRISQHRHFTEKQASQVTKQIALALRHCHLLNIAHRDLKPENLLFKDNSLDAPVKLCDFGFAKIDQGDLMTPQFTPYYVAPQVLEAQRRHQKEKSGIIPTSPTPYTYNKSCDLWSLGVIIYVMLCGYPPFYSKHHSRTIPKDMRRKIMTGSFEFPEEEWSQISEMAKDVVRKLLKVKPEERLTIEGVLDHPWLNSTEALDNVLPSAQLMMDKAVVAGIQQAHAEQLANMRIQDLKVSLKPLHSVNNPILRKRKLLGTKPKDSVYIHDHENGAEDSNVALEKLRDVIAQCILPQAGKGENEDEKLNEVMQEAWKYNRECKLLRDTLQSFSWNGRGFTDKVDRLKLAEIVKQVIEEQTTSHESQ

[9] = target: T3, Serine/threonine-protein kinase D3 (Homo sapiens, UniProt O94806)
T3 sequence (O94806 whole entry): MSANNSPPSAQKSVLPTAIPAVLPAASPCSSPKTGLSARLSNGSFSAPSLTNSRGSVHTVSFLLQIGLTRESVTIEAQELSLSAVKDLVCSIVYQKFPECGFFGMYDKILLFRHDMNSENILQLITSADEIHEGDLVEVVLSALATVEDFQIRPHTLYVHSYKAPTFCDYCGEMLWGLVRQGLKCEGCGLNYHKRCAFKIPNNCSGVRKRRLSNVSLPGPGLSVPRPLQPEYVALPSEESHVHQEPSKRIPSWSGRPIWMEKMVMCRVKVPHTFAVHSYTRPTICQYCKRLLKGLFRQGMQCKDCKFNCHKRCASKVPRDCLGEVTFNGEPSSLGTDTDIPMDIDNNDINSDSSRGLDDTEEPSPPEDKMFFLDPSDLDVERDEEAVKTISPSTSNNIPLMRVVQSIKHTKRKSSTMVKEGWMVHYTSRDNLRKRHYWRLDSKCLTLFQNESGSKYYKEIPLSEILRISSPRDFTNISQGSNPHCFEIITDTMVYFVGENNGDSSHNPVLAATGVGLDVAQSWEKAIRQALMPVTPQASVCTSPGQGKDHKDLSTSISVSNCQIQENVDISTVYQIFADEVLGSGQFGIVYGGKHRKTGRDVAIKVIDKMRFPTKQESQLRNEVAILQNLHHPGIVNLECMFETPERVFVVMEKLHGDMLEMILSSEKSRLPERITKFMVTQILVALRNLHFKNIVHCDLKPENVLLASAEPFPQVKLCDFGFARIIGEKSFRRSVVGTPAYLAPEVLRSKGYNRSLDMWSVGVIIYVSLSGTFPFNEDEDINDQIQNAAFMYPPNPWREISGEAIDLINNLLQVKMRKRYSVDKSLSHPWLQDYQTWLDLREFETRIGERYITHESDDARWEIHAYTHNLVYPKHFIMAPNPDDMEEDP

[10] = target: T4, Calcium/calmodulin-dependent protein kinase type IV (Homo sapiens, UniProt Q16566)
T4 sequence (Q16566 whole entry): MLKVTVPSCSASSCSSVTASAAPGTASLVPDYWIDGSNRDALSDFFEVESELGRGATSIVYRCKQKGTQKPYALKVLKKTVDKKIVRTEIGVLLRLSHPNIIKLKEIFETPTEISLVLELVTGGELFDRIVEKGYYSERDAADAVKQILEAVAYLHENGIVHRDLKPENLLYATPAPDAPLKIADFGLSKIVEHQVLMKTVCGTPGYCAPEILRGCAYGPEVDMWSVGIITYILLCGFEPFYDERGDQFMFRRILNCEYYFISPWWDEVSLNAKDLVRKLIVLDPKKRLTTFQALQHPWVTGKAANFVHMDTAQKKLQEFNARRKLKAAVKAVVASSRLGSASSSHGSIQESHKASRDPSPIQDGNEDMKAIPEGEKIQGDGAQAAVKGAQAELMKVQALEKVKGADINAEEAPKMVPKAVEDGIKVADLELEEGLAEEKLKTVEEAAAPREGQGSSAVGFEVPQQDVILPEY

[11] = target: ATP-dependent RNA helicase DDX3X (Homo sapiens, UniProt O00571)
Adenosine kinase = Adenosine kinase (Homo sapiens, UniProt P55263)
[12] = target: Chromodomain-helicase-DNA-binding protein 4 (Homo sapiens, UniProt Q14839)
[13] = target: Mitogen-activated protein kinase kinase kinase kinase 5 (Homo sapiens, UniProt Q9Y4K4)
Note: in the data inactive means no Kd found up to 30 µM.

Chain of Chromodomain-helicase-DNA-binding protein 4 (Q14839 whole entry): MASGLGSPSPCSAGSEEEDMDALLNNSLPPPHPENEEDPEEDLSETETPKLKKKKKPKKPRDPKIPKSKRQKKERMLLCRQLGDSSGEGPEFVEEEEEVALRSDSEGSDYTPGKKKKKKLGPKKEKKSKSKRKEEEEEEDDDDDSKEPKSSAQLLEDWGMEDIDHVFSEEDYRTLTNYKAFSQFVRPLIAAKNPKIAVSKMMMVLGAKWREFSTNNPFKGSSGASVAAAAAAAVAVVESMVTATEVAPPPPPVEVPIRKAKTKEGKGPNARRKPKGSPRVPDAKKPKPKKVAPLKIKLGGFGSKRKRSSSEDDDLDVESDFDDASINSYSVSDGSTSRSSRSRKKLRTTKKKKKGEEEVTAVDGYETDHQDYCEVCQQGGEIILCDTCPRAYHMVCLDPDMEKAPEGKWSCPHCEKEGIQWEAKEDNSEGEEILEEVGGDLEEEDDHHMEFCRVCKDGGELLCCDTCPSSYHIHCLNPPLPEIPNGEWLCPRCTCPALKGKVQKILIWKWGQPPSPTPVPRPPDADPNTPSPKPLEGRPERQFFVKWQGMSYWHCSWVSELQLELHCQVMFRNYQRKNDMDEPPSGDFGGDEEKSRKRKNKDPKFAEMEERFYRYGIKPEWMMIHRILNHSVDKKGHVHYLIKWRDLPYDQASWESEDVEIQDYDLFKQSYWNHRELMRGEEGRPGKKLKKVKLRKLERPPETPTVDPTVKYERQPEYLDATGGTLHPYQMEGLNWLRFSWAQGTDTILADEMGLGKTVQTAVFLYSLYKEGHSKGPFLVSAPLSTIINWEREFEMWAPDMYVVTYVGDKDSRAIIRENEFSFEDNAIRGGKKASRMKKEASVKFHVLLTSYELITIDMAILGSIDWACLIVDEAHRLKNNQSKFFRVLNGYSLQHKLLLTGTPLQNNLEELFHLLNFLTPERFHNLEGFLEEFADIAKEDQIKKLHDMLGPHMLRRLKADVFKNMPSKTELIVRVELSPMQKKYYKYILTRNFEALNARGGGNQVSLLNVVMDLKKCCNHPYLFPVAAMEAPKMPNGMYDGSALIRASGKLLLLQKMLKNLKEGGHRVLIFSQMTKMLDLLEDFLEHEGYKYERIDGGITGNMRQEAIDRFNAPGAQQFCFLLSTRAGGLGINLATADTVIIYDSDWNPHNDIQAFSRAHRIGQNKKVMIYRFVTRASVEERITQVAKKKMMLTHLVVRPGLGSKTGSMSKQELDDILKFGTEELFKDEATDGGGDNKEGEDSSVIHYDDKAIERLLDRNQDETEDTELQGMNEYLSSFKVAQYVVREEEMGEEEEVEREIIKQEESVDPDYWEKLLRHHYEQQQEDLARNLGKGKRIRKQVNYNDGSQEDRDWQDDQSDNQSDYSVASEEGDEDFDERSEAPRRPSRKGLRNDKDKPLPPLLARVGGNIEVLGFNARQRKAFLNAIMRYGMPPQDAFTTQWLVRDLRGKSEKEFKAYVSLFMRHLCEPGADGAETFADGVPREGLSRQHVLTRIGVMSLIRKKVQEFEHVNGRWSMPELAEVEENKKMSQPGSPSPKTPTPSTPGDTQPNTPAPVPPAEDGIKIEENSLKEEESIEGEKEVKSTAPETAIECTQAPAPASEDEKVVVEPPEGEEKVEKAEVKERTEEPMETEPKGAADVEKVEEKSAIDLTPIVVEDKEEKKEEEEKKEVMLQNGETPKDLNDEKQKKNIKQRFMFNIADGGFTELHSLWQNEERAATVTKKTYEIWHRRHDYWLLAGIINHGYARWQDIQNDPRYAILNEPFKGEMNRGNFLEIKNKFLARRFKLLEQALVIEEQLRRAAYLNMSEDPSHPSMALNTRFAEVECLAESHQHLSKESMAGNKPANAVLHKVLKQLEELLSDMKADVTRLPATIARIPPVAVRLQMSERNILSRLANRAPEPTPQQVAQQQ
Chain of ATP-dependent RNA helicase DDX3X (O00571 whole entry): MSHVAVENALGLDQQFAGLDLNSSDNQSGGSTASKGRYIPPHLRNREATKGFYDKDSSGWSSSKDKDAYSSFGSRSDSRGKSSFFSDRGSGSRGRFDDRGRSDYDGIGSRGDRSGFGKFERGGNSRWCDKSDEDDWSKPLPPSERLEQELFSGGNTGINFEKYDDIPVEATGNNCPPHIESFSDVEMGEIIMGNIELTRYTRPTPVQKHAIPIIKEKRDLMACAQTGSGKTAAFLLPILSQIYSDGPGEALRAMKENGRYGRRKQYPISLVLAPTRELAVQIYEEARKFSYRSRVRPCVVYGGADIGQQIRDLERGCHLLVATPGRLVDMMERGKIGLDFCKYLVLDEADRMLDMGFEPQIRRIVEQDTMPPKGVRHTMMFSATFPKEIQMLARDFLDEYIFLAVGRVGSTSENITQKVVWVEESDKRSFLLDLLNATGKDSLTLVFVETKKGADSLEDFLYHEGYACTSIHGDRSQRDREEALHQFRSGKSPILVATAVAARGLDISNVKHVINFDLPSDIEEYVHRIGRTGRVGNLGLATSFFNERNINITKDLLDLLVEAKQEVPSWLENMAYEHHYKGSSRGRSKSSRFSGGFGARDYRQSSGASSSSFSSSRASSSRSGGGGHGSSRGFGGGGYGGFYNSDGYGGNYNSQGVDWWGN
Chain of Tyrosine-protein kinase FRK (P42685 whole entry): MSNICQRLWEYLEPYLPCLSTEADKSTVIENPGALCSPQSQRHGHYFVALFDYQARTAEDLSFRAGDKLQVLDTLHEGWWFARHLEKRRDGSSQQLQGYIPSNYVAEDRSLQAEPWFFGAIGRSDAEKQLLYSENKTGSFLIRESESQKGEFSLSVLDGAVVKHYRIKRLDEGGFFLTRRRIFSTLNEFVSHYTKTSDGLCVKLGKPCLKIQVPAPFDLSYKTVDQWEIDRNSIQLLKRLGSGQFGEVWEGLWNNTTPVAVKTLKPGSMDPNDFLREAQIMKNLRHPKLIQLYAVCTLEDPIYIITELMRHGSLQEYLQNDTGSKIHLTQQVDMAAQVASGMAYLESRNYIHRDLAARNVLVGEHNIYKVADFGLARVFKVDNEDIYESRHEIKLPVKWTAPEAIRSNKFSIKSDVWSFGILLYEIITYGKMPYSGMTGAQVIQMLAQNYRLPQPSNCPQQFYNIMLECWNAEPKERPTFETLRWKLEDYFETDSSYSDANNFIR
Chain of Tyrosine-protein kinase Fer (P16591 whole entry): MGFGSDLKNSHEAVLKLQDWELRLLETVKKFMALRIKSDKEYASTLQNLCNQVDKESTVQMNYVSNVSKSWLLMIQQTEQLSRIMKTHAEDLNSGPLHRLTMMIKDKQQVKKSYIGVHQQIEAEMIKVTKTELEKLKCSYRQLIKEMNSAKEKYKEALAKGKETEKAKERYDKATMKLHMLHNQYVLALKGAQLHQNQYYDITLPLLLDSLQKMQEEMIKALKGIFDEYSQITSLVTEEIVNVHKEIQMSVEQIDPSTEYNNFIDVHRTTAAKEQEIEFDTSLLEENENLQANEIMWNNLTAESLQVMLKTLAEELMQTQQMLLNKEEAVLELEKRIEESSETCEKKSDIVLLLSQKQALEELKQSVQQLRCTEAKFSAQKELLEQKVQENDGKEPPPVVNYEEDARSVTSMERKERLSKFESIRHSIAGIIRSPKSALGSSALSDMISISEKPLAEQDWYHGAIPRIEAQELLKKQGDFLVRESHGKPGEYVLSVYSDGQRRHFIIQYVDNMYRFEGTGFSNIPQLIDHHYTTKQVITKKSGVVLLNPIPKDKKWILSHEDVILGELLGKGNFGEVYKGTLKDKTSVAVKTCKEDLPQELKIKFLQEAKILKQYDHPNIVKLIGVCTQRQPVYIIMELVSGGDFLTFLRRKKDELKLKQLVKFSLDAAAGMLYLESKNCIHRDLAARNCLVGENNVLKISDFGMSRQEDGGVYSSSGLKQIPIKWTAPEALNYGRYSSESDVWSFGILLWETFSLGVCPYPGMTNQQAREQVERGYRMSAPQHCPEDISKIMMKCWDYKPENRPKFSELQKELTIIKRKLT
Chain of Tyrosine-protein kinase BTK (Q06187 whole entry): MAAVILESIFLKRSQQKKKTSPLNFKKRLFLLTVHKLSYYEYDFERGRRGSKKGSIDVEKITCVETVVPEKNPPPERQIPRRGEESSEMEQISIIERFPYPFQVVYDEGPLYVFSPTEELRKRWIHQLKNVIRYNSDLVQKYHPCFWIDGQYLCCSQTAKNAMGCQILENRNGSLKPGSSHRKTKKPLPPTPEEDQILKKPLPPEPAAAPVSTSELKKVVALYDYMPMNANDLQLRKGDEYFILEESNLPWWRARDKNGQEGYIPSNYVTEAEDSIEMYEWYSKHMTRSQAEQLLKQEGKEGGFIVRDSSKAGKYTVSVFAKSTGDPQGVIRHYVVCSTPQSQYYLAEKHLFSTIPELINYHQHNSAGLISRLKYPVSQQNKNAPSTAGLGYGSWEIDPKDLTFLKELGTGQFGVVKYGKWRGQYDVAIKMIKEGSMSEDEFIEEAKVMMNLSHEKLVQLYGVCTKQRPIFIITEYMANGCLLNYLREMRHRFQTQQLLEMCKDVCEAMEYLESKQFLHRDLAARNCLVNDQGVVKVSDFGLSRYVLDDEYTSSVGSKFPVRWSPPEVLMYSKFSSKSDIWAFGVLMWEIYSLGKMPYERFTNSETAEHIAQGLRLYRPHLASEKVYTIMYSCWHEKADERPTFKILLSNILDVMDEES
Chain of Casein kinase I isoform alpha (P48729 whole entry, canonical isoform): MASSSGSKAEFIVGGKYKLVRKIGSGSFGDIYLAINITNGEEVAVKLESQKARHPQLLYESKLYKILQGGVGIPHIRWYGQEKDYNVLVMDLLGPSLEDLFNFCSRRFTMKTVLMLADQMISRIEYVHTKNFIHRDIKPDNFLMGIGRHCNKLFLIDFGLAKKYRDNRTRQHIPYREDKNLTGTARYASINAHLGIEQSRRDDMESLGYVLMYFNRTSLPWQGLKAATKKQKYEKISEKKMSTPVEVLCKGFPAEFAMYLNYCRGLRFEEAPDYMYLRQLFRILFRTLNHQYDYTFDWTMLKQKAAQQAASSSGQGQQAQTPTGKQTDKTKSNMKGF

Row | Compound | Kd [1] | Kd [2] | Kd [3] | Kd [4] | Kd [5] | Kd (Pyridoxal kinase) | Kd [6] | Kd [7] | Kd [8] | Kd [9] | Kd [10] | Kd [11] | Kd (Adenosine kinase) | Kd [12] | Kd [13]
1 | Cc1ccc(S(=O)(=O)Nc2nc3ccccc3nc2Nc2ccc3nsnc3c2)cc1 | > 30 µM (inactive) | > 30 µM (inactive) | > 30 µM (inactive) | > 30 µM (inactive) | > 30 µM (inactive) | > 30 µM (inactive) | > 30 µM (inactive) | > 30 µM (inactive) | > 30 µM (inactive) | > 30 µM (inactive) | > 30 µM (inactive) | > 30 µM (inactive) | > 30 µM (inactive) | > 30 µM (inactive) | > 30 µM (inactive)
2 | CN1CC[C@@H](c2c(O)cc(O)c3c(=O)cc(-c4ccccc4Cl)oc23)[C@@H]1CO | > 30 µM (inactive) | > 30 µM (inactive) | > 30 µM (inactive) | > 30 µM (inactive) | > 30 µM (inactive) | > 30 µM (inactive) | > 30 µM (inactive) | > 30 µM (inactive) | > 30 µM (inactive) | 2.54 µM (active) | > 30 µM (inactive) | > 30 µM (inactive) | > 30 µM (inactive) | > 30 µM (inactive) | > 30 µM (inactive)
3 | Cc1cc(-c2cc(O)ccc2Cl)cc2nnc(Nc3ccc(OCCN4CCCC4)cc3)nc12 | > 30 µM (inactive) | > 30 µM (inactive) | > 30 µM (inactive) | > 30 µM (inactive) | 0.001 µM (active) | > 30 µM (inactive) | > 30 µM (inactive) | > 30 µM (inactive) | > 30 µM (inactive) | 0.003 µM | > 30 µM (inactive) | > 30 µM (inactive) | > 30 µM (inactive) | > 30 µM (inactive) | > 30 µM (inactive)
4 | CCS(=O)(=O)N1CC(CC#N)(n2cc(-c3ncnc4[nH]ccc34)cn2)C1 [BARICITINIB] | > 30 µM (inactive) | > 30 µM (inactive) | > 30 µM (inactive) | > 30 µM (inactive) | > 30 µM (inactive) | > 30 µM (inactive) | > 30 µM (inactive) | > 30 µM (inactive) | > 30 µM (inactive) | > 30 µM (inactive) | > 30 µM (inactive) | > 30 µM (inactive) | > 30 µM (inactive) | > 30 µM (inactive) | > 30 µM (inactive)
5 | COC(=O)N[C@@H](C)CNc1nccc(-c2cn(C(C)C)nc2-c2cc(Cl)cc(NS(C)(=O)=O)c2F)n1 [ENCORAFENIB] | > 30 µM (inactive) | > 30 µM (inactive) | 3.33 µM (active) | > 30 µM (inactive) | > 30 µM (inactive) | > 30 µM (inactive) | > 30 µM (inactive) | > 30 µM (inactive) | > 30 µM (inactive) | > 30 µM (inactive) | > 30 µM (inactive) | > 30 µM (inactive) | > 30 µM (inactive) | > 30 µM (inactive) | > 30 µM (inactive)
6 | CC[C@H](Nc1ncnc2[nH]cnc12)c1nc2cccc(F)c2c(=O)n1-c1ccccc1 [IDELALISIB] | > 30 µM (inactive) | > 30 µM (inactive) | > 30 µM (inactive) | > 30 µM (inactive) | > 30 µM (inactive) | > 30 µM (inactive) | > 30 µM (inactive) | > 30 µM (inactive) | > 30 µM (inactive) | > 30 µM (inactive) | > 30 µM (inactive) | > 30 µM (inactive) | > 30 µM (inactive) | > 30 µM (inactive) | > 30 µM (inactive)

More lines, now with the values ahead:

Row | Kd [1] | Kd [2] | Kd [3] | Kd [4] | Kd [5] | Kd (Pyridoxal kinase) | Kd [6] | Kd [7] | Kd [8] | Kd [9] | Kd [10] | Kd [11] | Kd (Adenosine kinase) | Kd [12] | Kd [13] | Compound
7 | > 30 µM (inactive) | > 30 µM (inactive) | > 30 µM (inactive) | > 30 µM (inactive) | > 30 µM (inactive) | > 30 µM (inactive) | > 30 µM (inactive) | > 30 µM (inactive) | > 30 µM (inactive) | > 30 µM (inactive) | > 30 µM (inactive) | > 30 µM (inactive) | > 30 µM (inactive) | > 30 µM (inactive) | 50.2 µM (active) | CCN1CCN(Cc2ccc(-c3cc4c(N[C@H](C)c5ccccc5)ncnc4[nH]3)cc2)CC1 [AEE-788]
8 | > 30 µM (inactive) | > 30 µM (inactive) | > 30 µM (inactive) | > 30 µM (inactive) | > 30 µM (inactive) | > 30 µM (inactive) | > 30 µM (inactive) | > 30 µM (inactive) | > 30 µM (inactive) | > 30 µM (inactive) | > 30 µM (inactive) | > 30 µM (inactive) | > 30 µM (inactive) | > 30 µM (inactive) | > 30 µM (inactive) | Cc1cc([C@@H](C)Nc2ccccc2C(=O)O)c2nc(N3CCOCC3)cc(=O)n2c1 [AZD-6482]
9 | > 30 µM (inactive) | > 30 µM (inactive) | > 30 µM (inactive) | > 30 µM (inactive) | > 30 µM (inactive) | > 30 µM (inactive) | > 30 µM (inactive) | > 30 µM (inactive) | > 30 µM (inactive) | > 30 µM (inactive) | > 30 µM (inactive) | > 30 µM (inactive) | > 30 µM (inactive) | > 30 µM (inactive) | > 30 µM (inactive) | COc1ccc(-c2ccc3c(N4CCOC[C@@H]4C)nc(N4CCOC[C@@H]4C)nc3n2)cc1CO [AZD-8055]
10 | > 30 µM (inactive) | > 30 µM (inactive) | > 30 µM (inactive) | > 30 µM (inactive) | > 30 µM (inactive) | > 30 µM (inactive) | > 30 µM (inactive) | > 30 µM (inactive) | > 30 µM (inactive) | > 30 µM (inactive) | > 30 µM (inactive) | > 30 µM (inactive) | > 30 µM (inactive) | > 30 µM (inactive) | > 30 µM (inactive) | Cn1cc(-c2ccc3nnc(C(F)(F)c4ccc5ncccc5c4)n3n2)cn1 [JNJ-38877605]
